According to patent US20240270741A1 (Cogent Biosciences, Inc., priority 2023, published 2024):

Target: FGFR2 (Homo sapiens, UniProt P21802)
Assay: FGFR wild type enzyme assay (HTRF KinEASE-TK), FGFR2
Conditions: Enz FGFR2 (nM), FGFR2 wild type enzyme assay

FGFR2, sequence (P21802 399-821 limits assumed): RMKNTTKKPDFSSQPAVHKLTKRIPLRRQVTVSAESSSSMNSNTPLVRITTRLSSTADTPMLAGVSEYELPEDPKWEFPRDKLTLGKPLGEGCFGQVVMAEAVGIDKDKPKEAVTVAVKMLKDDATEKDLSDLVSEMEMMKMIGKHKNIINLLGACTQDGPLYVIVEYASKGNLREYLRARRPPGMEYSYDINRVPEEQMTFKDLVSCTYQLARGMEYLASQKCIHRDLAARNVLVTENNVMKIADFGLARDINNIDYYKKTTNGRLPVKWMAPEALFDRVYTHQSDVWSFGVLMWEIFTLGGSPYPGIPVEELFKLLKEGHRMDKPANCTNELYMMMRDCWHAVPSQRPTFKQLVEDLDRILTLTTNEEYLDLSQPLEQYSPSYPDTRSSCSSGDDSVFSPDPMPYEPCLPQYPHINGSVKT

SMILES | IC50 [nM]
N#Cc1cnn2cc(-c3ccc(N4C[C@H](O)[C@@H](O)C4)nc3)cc(Sc3ncccc3F)c12 [Example 654, 6-(6-((3S,4S)-3,4-dihydroxypyrrolidin-1-yl)pyridin-3-yl)-4-((3-fluoropyridin-2-yl)thio)pyrazolo[1,5-a]pyridine-3-carbonitrile] | 3
N#Cc1cnn2cc(-c3ccc(N4C[C@@H](O)[C@H](O)C4)nc3)cc(Sc3ncccc3F)c12 [Example 655, 6-(6-((3R,4R)-3,4-dihydroxypyrrolidin-1-yl)pyridin-3-yl)-4-((3-fluoropyridin-2-yl)thio)pyrazolo[1,5-a]pyridine-3-carbonitrile] | 3
CN1CCN(c2ccc(-c3cc(Sc4ncccc4F)c4c(C#N)cnn4c3)cn2)CC1=O [Example 656, 4-((3-fluoropyridin-2-yl)thio)-6-(6-(4-methyl-3-oxopiperazin-1-yl)pyridin-3-yl)pyrazolo[1,5-a]pyridine-3-carbonitrile] | 2
N#Cc1cc(F)ccc1Sc1cc(-c2ccc(N3CCNC(=O)C3)nc2)cn2ncc(C#N)c12 [Example 657, 4-((2-cyano-4-fluorophenyl)thio)-6-(6-(3-oxopiperazin-1-yl)pyridin-3-yl)pyrazolo[1,5-a]pyridine-3-carbonitrile] | 3
CN=S1(=O)CCC(n2cc(-c3cc(Sc4ccc(F)cc4C#N)c4c(C#N)cnn4c3)cn2)CC1 (centres unmarked) [Example 658, 4-((2-cyano-4-fluorophenyl)thio)-6-(1-(1-(methylimino)-1-oxidohexahydro-1l6-thiopyran-4-yl)-1H-pyrazol-4-yl)pyrazolo[1,5-a]pyridine-3-carbonitrile] | 1.5
N#Cc1cnn2cc(-c3ccc(N4C[C@@H](O)[C@@H](O)C4)nc3)cc(Sc3ncccc3F)c12 [Example 661, 6-(6-((3R,4S)-3,4-dihydroxypyrrolidin-1-yl)pyridin-3-yl)-4-((3-fluoropyridin-2-yl)thio)pyrazolo[1,5-a]pyridine-3-carbonitrile] | 2
N#Cc1cnn2cc(-c3ccc(N4CCNC(=O)C4)nc3)cc(Sc3ncccc3F)c12 [Example 662, 4-((3-fluoropyridin-2-yl)thio)-6-(6-(3-oxopiperazin-1-yl)pyridin-3-yl)pyrazolo[1,5-a]pyridine-3-carbonitrile] | 2
CC(=O)NCCn1cc(-c2cc(Sc3ccccc3C#N)c3c(C#N)cnn3c2)cn1 [Example 663, N-(2-(4-(3-cyano-4-((2-cyanophenyl)thio)pyrazolo [1,5-a]pyridin-6-yl)-1H-pyrazol-1-yl)ethyl)acetamide] | 2
CN1C[C@H](n2cc(-c3cc(Sc4ccccc4C#N)c4c(C#N)cnn4c3)cn2)CCC1=O [Example 667, (R)-4-((2-cyanophenyl)thio)-6-(1-(1-methyl-6-oxopiperidin-3-yl)-1H-pyrazol-4-yl)pyrazolo[1,5-a]pyridine-3-carbonitrile] | 1
CN(CCO)C(=O)Cn1cc(-c2cc(Sc3ccccc3C#N)c3c(C#N)cnn3c2)cn1 [Example 669, 2-(4-(3-cyano-4-((2-cyanophenyl)thio)pyrazolo [1,5-a]pyridin-6-yl)-1H-pyrazol-1-yl)-N-(2-hydroxyethyl)-N-methylacetamide] | 1
N#Cc1ccccc1Sc1cc(-c2cnn(CC(=O)N3CCNCC3)c2)cn2ncc(C#N)c12 [Example 670, 4-((2-cyanophenyl)thio)-6-(1-(2-oxo-2-(piperazin-1-yl)ethyl)-1H-pyrazol-4-yl)pyrazolo[1,5-a]pryridine-3-carbonitrile] | 1
CNC(=O)CCn1cc(-c2cc(Sc3ccccc3C#N)c3c(C#N)cnn3c2)cn1 [Example 672, 3-(4-(3-cyano-4-((2-cyanophenyl)thio)pyrazolo [1,5-a]pyridin-6-yl)-1H-pyazol-1-yl)-N-methylpropanamide] | 1
N#Cc1ccccc1Sc1cc(-c2cnn(CCC(=O)N3CC[C@H](O)C3)c2)cn2ncc(C#N)c12 [Example 674, (S)-4-((2-cyanophenyl)thio)-6-(1-(3-(3-hydroxypyrrolidin-1-yl)-3-oxopropyl)-1H-pyrazol-4-yl)pyrazolo[1,5-a]pyridine-3-carbonitrile] | 1
Cc1c(-c2cc(Sc3ccc(F)cc3C#N)c3c(C#N)cnn3c2)cnn1CC[C@@H](O)CO [Example 676, (R)-4-((2-cyano-4-fluorophenyl)thio)-6-(1-(3,4-dihydroxybutyl)-5-methyl-1H-pyrazol-4-yl)pyrazolo[1,5-a]pyridine-3-carbonitrile] | 3
Cc1c(-c2cc(Sc3ccc(F)cc3C#N)c3c(C#N)cnn3c2)cnn1[C@H]1CC[C@H](OP(=O)(O)O)CC1 [Example 679, sodium (1r,4r)-4-(4-(3-cyano-4-((2-cyano-4-fluorophenyl)thio)pyrazolo [1,5-a]pyridin-6-yl)-5-methyl-1H-pyrazol-1-yl)cyclohexyl phosphate] | 1.6
Cc1c(-c2cc(Sc3ccc(F)cc3C#N)c3c(C#N)cnn3c2)cnn1[C@H]1CC[C@H](OC(=O)[C@@H](N)C(C)C)CC1 [Example 680, (1r,4S)-4-(4-(3-cyano-4-((2-cyano-4-fluorophenyl)thio)pyrazolo [1,5-a]pyridin-6-yl)-5-methyl-1H-pyrazol-1-yl)cyclohexyl L-valinate] | 1

Continued, values first:

IC50 [nM] | SMILES
0.5 | N#Cc1ccccc1Sc1cc(-c2ccc(N3CCO[C@H](CO)C3)nc2)cn2ncc(C#N)c12 [Example 649, (S)-4-((2-cyanophenyl)thio)-6-(6-(2-(hydroxymethyl)morpholi-no)pyridin-3-yl)pyrazolo[1,5-a]pryidine-3-carbonitrile]
1 | N#Cc1ccccc1Sc1cc(-c2cnn(CC[C@@H](O)CO)c2)cn2ncc(C#N)c12 [Example 650, (R)-4-((2-cyanophenyl)thio)-6-(1-(3,4-dihydroxybutyl)-1H-pyrazol-4-yl)pyrazolo[1,5-a]pyridine-3-carbonitrile]
1 | N#Cc1ccccc1Sc1cc(-c2cnn(CC(=O)N3CC[C@H](O)C3)c2)cn2ncc(C#N)c12 [Example 651, (S)-4-((2-cyanophenyl)thio)-6-(1-(2-(3-hydroxypyrrolidin-1-yl)-2-oxoethyl)-1H-pyrazol-4-yl)pyrazolo[1,5-a]pyridine-3-carbonitrile]
1 | N#Cc1ccccc1Sc1cc(-c2cnn(CC(=O)N3CC[C@@H](O)C3)c2)cn2ncc(C#N)c12 [Example 652, (R)-4-((2-cyanophenyl)thio)-6-(1-(2-(3-hydroxypyrrolidin-1-yl)-2-oxoethyl)-1H-pyrazol-4-yl)pyrazolo[1,5-a]pyridine-3-carbonitrile]
1 | CC(C)(O)CCn1cc(-c2cc(Sc3ccccc3C#N)c3c(C#N)cnn3c2)cn1 [Example 653, 4-((2-cyanophenyl)thio)-6-(1-(3-hydroxy-3-methylbutyl)-1H-pyrazol-4-yl)pyrazolo[1,5-a]pyridine-3-carbonitrile]
0.3 | CC(=O)N1CCC(N(C)c2ccc(-c3cc(Sc4ccccc4C#N)c4c(C#N)cnn4c3)cn2)CC1 [Example 659, 6-(6-((1-acetylpiperidin-4-yl)(methyl)amino)pyridin-3-yl)-4-((2-cyanophenyl)thio)pyrazolo [1,5-a]pyridine-3-carbonitrile]
1 | N#Cc1ccccc1Sc1cc(-c2ccc(N3C[C@@H](O)[C@@H](O)C3)nc2)cn2ncc(C#N)c12 [Example 660, 4-((2-cyanophenyl)thio)-6-(6-((3R,4S)-3,4-dihydroxypyrrolidin-1-yl)pyridin-3-yl)pyrazolo[1,5-a]pyridine-3-carbonitrile]
0.2 | CC(=O)N1CCN(c2ccc(-c3cc(Sc4ccccc4C#N)c4c(C#N)cnn4c3)cn2)CC1 [Example 664, 6-(6-(4-acetylpiperazin-1-yl)pyridin-3-yl)-4-((2-cyanophenyl)thio)pyrazolo [1,5-a]pyridine-3-carbonitrile]
1 | C[C@@H]1CN(c2ccc(-c3cc(Sc4ccccc4C#N)c4c(C#N)cnn4c3)cn2)C[C@H](C)O1 [Example 665, 4-((2-cyanophenyl)thio)-6-(6-((2S,6R)-2,6-dimethylmorpholino)pyridin-3-yl)pyrazolo[1,5-a]pyridine-3-carbonitrile]
0.6 | Cc1c(-c2cc(Sc3ccc(F)cc3C#N)c3c(C#N)cnn3c2)cnn1C1CCOCC1 [Example 666, 4-((2-cyano-4-fluorophenyl)thio)-6-(5-methyl-1-(tetrahydro-2H-pyran-4-yl)-1H-pyrazol-4-y)pyrazolo[1,5-a]pyridine-3-carbonitrile]
0.4 | N#Cc1ccccc1Sc1cc(-c2cnn(CC[C@H](O)CO)c2)cn2ncc(C#N)c12 [Example 668, (S)-4-((2-cyanophenyl)thio)-6-(1-(3,4-dihydroxybutyl)-1H-pyrazol-4-yl)pyrazolo[1,5-a]pyridine-3-carbonitrile]
0.5 | CN(C)C(=O)CCn1cc(-c2cc(Sc3ccccc3C#N)c3c(C#N)cnn3c2)cn1 [Example 671, 3-(4-(3-cyano-4-((2-cyanophenyl)thio)pyrazolo [1,5-a]pyridin-6-yl)-1H-pyrazol-1-yl)-N,N-dimethylpropanamide]
0.2 | N#Cc1ccccc1Sc1cc(-c2cnn(CCC(=O)N3CC[C@@H](O)C3)c2)cn2ncc(C#N)c12 [Example 673, (R)-4-((2-cyanophenyl)thio)-6-(1-(3-(3-hydroxypyrrolidin-1-yl)-3-oxopropyl)-1H-pyrazol-4-yl)pyrazolo[1,5-a]pyridine-3-carbonitrile]
0.6 | N#Cc1ccccc1Sc1cc(-c2cnn(CCC(=O)N3CCNCC3)c2)cn2ncc(C#N)c12 [Example 675, 4-((2-cyanophenyl)thio)-6-(1-(3-oxo-3-(piperazin-1-yl)propyl)-1H-pyrazol-4-yl)pyrazolo[1,5-a]pyridine-3-carbonitrile]
0.3 | C[C@H](O)CN1CC[C@H](n2cc(-c3cc(Sc4ccccc4C#N)c4c(C#N)cnn4c3)cn2)C1 [Example 677, 4-((2-cyanophenyl)thio)-6-(1-((S)-1-((S)-2-hydroxypropyl)pyrrolidin-3-yl)-1H-pyrazol-4-y)pyrazolo[1,5-a]pyridine-3-carbonitrile]
0.4 | C[C@@H](O)CN1CC[C@H](n2cc(-c3cc(Sc4ccccc4C#N)c4c(C#N)cnn4c3)cn2)C1 [Example 678, 4-((2-cyanophenyl)thio)-6-(1-((S)-1-((R)-2-hydroxypropyl)pyrrolidin-3-yl)-1H-pyrazol-4-yl)pyrazolo[1,5-a]pyridine-3-carbonitrile]
